In data set [1] the target is Chymotrypsin. Briefly: Binding of inhibitors to chymotrypsin. In kind it is biochemical. The following applies: for KiIH/KiICHO or KiIH/KiICOCHO: fold increase in binding due to aldehyde or glyoxal group; for KiIH/KiICOOH: pH 7.2, ratio of Ki(obs) of peptide-H to peptide-COOH.
In data set [2] the target is Chymotrypsin. The note with it: read-out: Ki(obs), cited from earlier work.
The conditions of data set [3]: cited from earlier work; for KH1: KH1 = KH1obs/[H2O], 25 °C.
The subject of data set [4] is α-Chymotrypsin. The following applies: equilibrium constant for hemiketal formation; cited from earlier work.
[5] abbreviates: hydration of glyoxal keto group.

The source of these data is paper PMC7185411 (Biochimica et Biophysica Acta. Proteins and Proteomics, 2015).

Read-outs that look alike come from different tables or passages of the source. Marks after values point to notes of the source that are not given here. Residues, ends and D or L forms follow the SMILES beside them. *: point of attachment. Cbz = O=C(OCc1ccccc1)*

`C[C@H](NC(=O)OCc1ccccc1)C(=O)N[C@@H](C)C(=O)N[C@@H](Cc1ccccc1)C(=O)C=O` [ZAAF-CHO, Z-Ala-Ala-Phe-CHO]: in data set [1], the “KiIH/KiICHO or KiIH/KiICOCHO” value was determined as 100. Moreover, the Ki in data set [2] (25 °C) is 1.7 ± 0.4 µM. For the same compound, the KH1 in data set [3] is reported as 0.25. Further, the “KH1(obs)” value in data set [3] (hydration of aldehyde group) is reported as 13.9 ^e.
As for `CC(NC(=O)OCc1ccccc1)C(=O)NC(C)C(=O)NC(Cc1ccccc1)C(=O)C=O` (stereo not shown) [ZAAF-COCHO], in data set [1], the “KiIH/KiICHO or KiIH/KiICOCHO” value came to 455. Moreover, the KHK in data set [4] was 1170. In data set [2] (pH 7.2, 25 °C), the Ki is 0.365 µM. For the same compound, the KH1 in data set [3] is listed as 0.0284. Also, the “KH1(obs)” value in data set [3] (setting [5]) is reported as 1.58 ^d.
`C[C@H](NC(=O)OCc1ccccc1)C(=O)N1CCC[C@H]1C(=O)N[C@@H](Cc1ccccc1)C(=O)C=O` [ZAPF-COCHO]: the “KiIH/KiICHO or KiIH/KiICOCHO” value was 2310 in data set [1] and 460–2300 in data set [1] (listed as Z-APF-COCHO). For the same compound, the KHK in data set [4] is 5270. Also, the Ki in data set [2] (pH 7.2, 25 °C) is 0.0335 µM. Further, the KH1 in data set [3] is 0.023. The “KH1(obs)” value in data set [3] (setting [5]) is 1.28 ^c.
Consider `CC(NC(=O)OCc1ccccc1)C(=O)N1CCCC1C(=O)NC(C=O)Cc1ccccc1` (stereo not drawn) [ZAPF-H, Z-Ala-Pro-Phe-H] (Cbz-Ala-Pro-Phe-aldehyde; configuration not given here), for which the Ki in data set [2] (pH 7.2, 25 °C) was 77.4 ± 6.4 µM.
Turning to Cbz-Ala-Ala-Phe-OH [ZAAF-COOH], in data set [1], the “fold tighter binding on replacing the α-carboxylate group with a hydrogen atom” value is listed as 3–4 fold and the KiIH/KiICOOH worked out at 0.31. Also, in data set [2] (pH 7.2, 25 °C), the Ki was 532 ± 50 µM.
In the case of Cbz-Ala-Pro-Phe-OH [ZAPF-COOH], in data set [1], the “fold tighter binding on replacing the α-carboxylate group with a hydrogen atom” value is on record as 3–4 fold and the KiIH/KiICOOH is listed as 0.32. For the same compound, the inhibition constant Ki in data set [2] (pH 7.2, 25 °C) is 241 ± 7 µM.
